According to patent US20250270209A1 (INTERLINE THERAPEUTICS, INC., priority 2022, published 2025):

Assays:
[1] = biological target: LRRK2 wild type enzyme (Homo sapiens, UniProt Q5S007); test: Biochemical Assay: LRRK2 TR-FRET (LanthaScreen) kinase assay with LRRKtide substrate; details: LRRK2 Inhibition, Table 8
In short: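 Human wild-type LRRK2 (3 nM) preincubated 15 min with compound (11-point, 3-fold, top 10 μM), then reacted 120 min at 23 °C with 400 nM LRRKtide and 25 μM ATP, pH 8.0. Stopped with EDTA; Tb-anti-pLRRKtide TR-FRET read after 30 min.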

[2] = biological target: T1, wild type LRRK2 overexpressed in recombinant HEK-293T cells (Homo sapiens, UniProt Q5S007); test: pS935 LRRK2 Cell Assay (HTRF, phospho-LRRK2 Ser935); assay type: cell-based; details: LRRK2 Inhibition, Table 8, 2 hours compound incubation
T1 construct: host or cells: HEK293T (transient transfection with pCMV-LRRK2 WT plasmid)
In short: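 HEK-293T cells transiently transfected with wild-type LRRK2 for 24 h, plated overnight, then treated 2 h at 37° C with compound (top 10 μM, 3-fold, 9 doses, duplicates, 0.2% DMSO). Lysates probed overnight at 23° C by sandwich HTRF for pSer935; 665/615 nm ratio read.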

LRRK2 wild type enzyme, sequence (Q5S007 whole entry): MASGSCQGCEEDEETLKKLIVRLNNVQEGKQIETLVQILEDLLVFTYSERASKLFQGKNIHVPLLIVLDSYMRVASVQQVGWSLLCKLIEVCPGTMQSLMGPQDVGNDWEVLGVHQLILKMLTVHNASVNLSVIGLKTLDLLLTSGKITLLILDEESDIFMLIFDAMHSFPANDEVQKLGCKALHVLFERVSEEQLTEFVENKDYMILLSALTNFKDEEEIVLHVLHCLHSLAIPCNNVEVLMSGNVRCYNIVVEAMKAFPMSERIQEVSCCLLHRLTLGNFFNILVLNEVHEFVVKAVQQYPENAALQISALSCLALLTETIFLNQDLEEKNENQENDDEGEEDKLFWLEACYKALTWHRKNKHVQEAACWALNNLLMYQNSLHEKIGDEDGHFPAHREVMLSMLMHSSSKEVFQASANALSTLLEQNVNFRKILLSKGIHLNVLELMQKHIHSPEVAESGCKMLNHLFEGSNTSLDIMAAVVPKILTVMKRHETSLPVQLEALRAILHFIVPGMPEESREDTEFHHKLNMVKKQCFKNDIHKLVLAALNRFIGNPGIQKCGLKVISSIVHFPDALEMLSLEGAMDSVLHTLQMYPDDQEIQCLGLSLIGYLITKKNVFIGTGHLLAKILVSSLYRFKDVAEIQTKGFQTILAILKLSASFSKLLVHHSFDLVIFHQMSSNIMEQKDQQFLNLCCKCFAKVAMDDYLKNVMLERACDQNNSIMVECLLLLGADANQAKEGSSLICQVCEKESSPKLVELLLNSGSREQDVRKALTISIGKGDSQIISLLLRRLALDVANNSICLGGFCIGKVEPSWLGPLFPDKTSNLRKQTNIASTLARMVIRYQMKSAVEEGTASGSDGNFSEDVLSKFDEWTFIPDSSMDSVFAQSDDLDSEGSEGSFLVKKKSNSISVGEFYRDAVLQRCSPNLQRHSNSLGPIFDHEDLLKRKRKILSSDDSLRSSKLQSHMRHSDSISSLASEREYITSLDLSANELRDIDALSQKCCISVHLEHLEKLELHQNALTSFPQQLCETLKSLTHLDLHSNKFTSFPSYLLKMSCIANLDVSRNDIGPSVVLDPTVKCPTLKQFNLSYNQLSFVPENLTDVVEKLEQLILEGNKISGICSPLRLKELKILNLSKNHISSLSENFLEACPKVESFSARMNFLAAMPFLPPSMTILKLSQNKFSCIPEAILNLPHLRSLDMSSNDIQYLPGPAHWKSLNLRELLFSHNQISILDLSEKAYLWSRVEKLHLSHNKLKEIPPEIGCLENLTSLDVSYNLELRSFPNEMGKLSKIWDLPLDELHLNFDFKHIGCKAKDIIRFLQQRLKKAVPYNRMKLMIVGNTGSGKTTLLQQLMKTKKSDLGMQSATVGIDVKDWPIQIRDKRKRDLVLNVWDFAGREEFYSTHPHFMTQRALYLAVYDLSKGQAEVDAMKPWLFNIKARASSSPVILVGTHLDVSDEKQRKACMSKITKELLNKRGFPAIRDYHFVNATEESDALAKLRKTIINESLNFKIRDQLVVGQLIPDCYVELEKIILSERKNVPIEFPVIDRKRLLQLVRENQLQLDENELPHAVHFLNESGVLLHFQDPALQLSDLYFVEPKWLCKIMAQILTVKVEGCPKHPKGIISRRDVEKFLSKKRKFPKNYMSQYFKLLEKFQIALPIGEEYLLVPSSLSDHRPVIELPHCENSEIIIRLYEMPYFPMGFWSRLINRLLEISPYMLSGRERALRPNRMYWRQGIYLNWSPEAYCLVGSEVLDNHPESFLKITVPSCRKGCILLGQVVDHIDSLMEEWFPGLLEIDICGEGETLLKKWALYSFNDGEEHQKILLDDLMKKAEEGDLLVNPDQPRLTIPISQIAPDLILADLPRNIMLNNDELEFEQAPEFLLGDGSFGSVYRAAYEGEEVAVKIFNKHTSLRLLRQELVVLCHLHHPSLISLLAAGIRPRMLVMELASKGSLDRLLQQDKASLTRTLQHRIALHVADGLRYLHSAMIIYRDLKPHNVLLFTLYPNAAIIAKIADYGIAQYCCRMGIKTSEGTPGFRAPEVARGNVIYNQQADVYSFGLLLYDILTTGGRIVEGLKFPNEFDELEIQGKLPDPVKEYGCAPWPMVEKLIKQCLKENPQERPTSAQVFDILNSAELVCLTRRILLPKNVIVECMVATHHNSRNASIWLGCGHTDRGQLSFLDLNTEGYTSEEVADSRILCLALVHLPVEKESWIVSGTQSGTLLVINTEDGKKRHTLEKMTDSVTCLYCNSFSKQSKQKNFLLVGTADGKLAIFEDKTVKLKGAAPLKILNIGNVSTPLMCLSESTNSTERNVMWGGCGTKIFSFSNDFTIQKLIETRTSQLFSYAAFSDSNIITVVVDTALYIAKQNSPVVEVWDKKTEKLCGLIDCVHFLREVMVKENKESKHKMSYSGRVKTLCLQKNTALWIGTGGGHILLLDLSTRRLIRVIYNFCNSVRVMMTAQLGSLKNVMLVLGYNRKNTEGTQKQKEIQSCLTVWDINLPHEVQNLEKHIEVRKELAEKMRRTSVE
T1 sequence (Q5S007 whole entry): as above

SMILES | IC50 [1] | IC50 [2]
C[C@@H]1C[C@H](n2c(CC(=O)Nc3ccc(C(F)(F)F)n(C)c3=O)nc3cnc4ccc(C#N)cc4c32)CCO1 [Compound 221, N-[1-methyl-2-oxo-6-(trifluoromethyl)-1,2-dihydro-3-pyridyl]{3-[(2R,4R)-2-methyltetrahydro-2H-pyran-4-yl]-12-cyano-3,5,8-triazatricyclo[7.4.0.0^2,6]trideca-1,4,6,8,10,12-hexaen-4-yl}acetamide] | 0.526 nM | 5.77 nM
C[C@@H]1C[C@H](n2c(CC(=O)Nc3cccnc3)nc3cnc4ccc(C#N)cc4c32)CCO1 [Compound 320, N-3-pyridyl{3-[(2R,4R)-2-methyltetrahydro-2H-pyran-4-yl]-12-cyano-3,5,8-triazatricyclo[7.4.0.0^2,6]trideca-1(9),2(6),4,7,10,12-hexaen-4-yl}acetamide] | 0.571 nM | 6.31 nM
C[C@@H]1C[C@H](n2c(CC(=O)NC3(C)CC3)nc3cnc4ccc(C#N)cc4c32)CCO1 [Compound 328, N-1-methylcyclopropyl{3-[(2R,4R)-2-methyltetrahydro-2H-pyran-4-yl]-12-cyano-3,5,8-triazatricyclo[7.4.0.0^2,6]trideca-1(9),2(6),4,7,10,12-hexaen-4-yl}acetamide] | 1.86 nM | 54.7 nM
C[C@@H]1C[C@H](n2c(CC(=O)Nc3ccc(F)nc3)nc3cnc4ccc(C#N)cc4c32)CCO1 [Compound 299, N-(6-fluoro-3-pyridyl){3-[(2R,4R)-2-methyltetrahydro-2H-pyran-4-yl]-12-cyano-3,5,8-triazatricyclo[7.4.0.0^2,6]trideca-1,4,6,8,10,12-hexaen-4-yl}acetamide] | 0.387 nM | 10.5 nM
C[C@@H]1C[C@H](n2c(C3CC(=O)N([C@@H]4CCOC4)C3)nc3cnc4ccc(C#N)cc4c32)CCO1 (stereo partly drawn) [Compound 44, 1-[(2R,4R)-2-methyloxan-4-yl]-2-{5-oxo-1-[(3R)-oxolan-3-yl]pyrrolidin-3-yl}-1H-imidazo[4,5-c]quinoline-8-carbonitrile] | 3.43 nM | 555 nM
C[C@@H]1C[C@H](n2c(CC(=O)N[C@@H]3C[C@H]3F)nc3cnc4ccc(C#N)cc4c32)CCO1 [Compound 277, N-[(1R,2R)-2-fluorocyclopropyl]{3-[(2R,4R)-2-methyltetrahydro-2H-pyran-4-yl]-12-cyano-3,5,8-triazatricyclo[7.4.0.0^2,6]trideca-1(13),2(6),4,7,9,11-hexaen-4-yl}acetamide] | 0.828 nM | 52.2 nM
C[C@@H]1C[C@H](n2c(CC(=O)Nc3cnccc3O)nc3cnc4ccc(C#N)cc4c32)CCO1 [Compound 208, N-(4-hydroxy-3-pyridyl){3-[(2R,4R)-2-methyltetrahydro-2H-pyran-4-yl]-12-cyano-3,5,8-triazatricyclo[7.4.0.0^2,6]trideca-1,4,6,8,10,12-hexaen-4-yl}acetamide] | 0.582 nM | 4930 nM
COc1nc(C)nc(C)c1NC(=O)Cc1nc2cnc3ccc(C#N)cc3c2n1[C@@H]1CCO[C@H](C)C1 [Compound 203, N-(4-methoxy-2,6-dimethyl-5-pyrimidinyl){3-[(2R,4R)-2-methyltetrahydro-2H-pyran-4-yl]-12-cyano-3,5,8-triazatricyclo[7.4.0.0^2,6]trideca-1,4,6,8,10,12-hexaen-4-yl}acetamide] | 0.338 nM | 136 nM
C[C@@H]1C[C@H](n2c(CC(=O)Nc3cnn(C4COC4)c3)nc3cnc4ccc(C#N)cc4c32)CCO1 [Compound 304, N-[1-(3-oxetanyl)-4-pyrazolyl]{3-[(2R,4R)-2-methyltetrahydro-2H-pyran-4-yl]-12-cyano-3,5,8-triazatricyclo[7.4.0.0^2,6]trideca-1(13),2(6),4,7,9,11-hexaen-4-yl}acetamide] | 0.733 nM | 107 nM
C[C@@H]1C[C@H](n2c(CC(=O)NCc3ccncc3)nc3cnc4ccc(C#N)cc4c32)CCO1 [Compound 15, 2-{8-cyano-1-[(2R,4R)-2-methyloxan-4-yl]-1H-imidazo[4,5-c]quinolin-2-yl}-N-[(pyridin-4-yl)methyl]acetamide] | 0.294 nM | 15.8 nM
Cc1ncccc1NC(=O)Cc1nc2cnc3ccc(C#N)cc3c2n1[C@@H]1CCO[C@H](C)C1 [Compound 316, N-(2-methyl-3-pyridyl){3-[(2R,4R)-2-methyltetrahydro-2H-pyran-4-yl]-12-cyano-3,5,8-triazatricyclo[7.4.0.0^2,6]trideca-1(9),2(6),4,7,10,12-hexaen-4-yl}acetamide] | 0.527 nM | 6.81 nM
CN1CC(n2c(CC(=O)NCC3CC3)nc3cnc4ccc(C#N)cc4c32)CCC1=O (single isomer, unassigned) [Compound 91] | 40.4 nM | 6910 nM
C[C@@H]1C[C@H](n2c(CS(=O)(=O)C3CC3)nc3cnc4ccc(C#N)cc4c32)CCO1 [Compound 74, 2-[(cyclopropanesulfonyl)methyl]-1-[(2R,4R)-2-methyloxan-4-yl]-1H-imidazo[4,5-c]quinoline-8-carbonitrile] | 5.92 nM | 430 nM
Cc1noc(CNC(=O)Cc2nc3cnc4ccc(C#N)cc4c3n2[C@@H]2CCO[C@H](C)C2)n1 [Compound 279, N-[(3-methyl-1,2,4-oxadiazol-5-yl)methyl]{3-[(2R,4R)-2-methyltetrahydro-2H-pyran-4-yl]-12-cyano-3,5,8-triazatricyclo[7.4.0.0^2,6]trideca-1(9),2(6),4,7,10,12-hexaen-4-yl}acetamide] | 0.776 nM | 86.3 nM
Cc1noc(NC(=O)Cc2nc3cnc4ccc(C#N)cc4c3n2[C@@H]2CCO[C@H](C)C2)c1C [Compound 349, N-(3,4-dimethyl-5-isoxazolyl){3-[(2R,4R)-2-methyltetrahydro-2H-pyran-4-yl]-12-cyano-3,5,8-triazatricyclo[7.4.0.0^2,6]trideca-1(9),2(6),4,7,10,12-hexaen-4-yl}acetamide] | 0.547 nM | 7.43 nM
C[C@@H]1C[C@H](n2c(CC(=O)Nc3ccc(=O)n(C)c3)nc3cnc4ccc(Cl)cc4c32)CCO1 [Compound 219, N-(1-methyl-6-oxo-1,6-dihydro-3-pyridyl){3-[(2R,4R)-2-methyltetrahydro-2H-pyran-4-yl]-12-chloro-3,5,8-triazatricyclo[7.4.0.0^2,6]trideca-1,4,6,8,10,12-hexaen-4-yl}acetamide] | 0.232 nM | 15.8 nM
C[C@@H]1C[C@H](n2c(C3CCN(CC4CC4)C(=O)C3)nc3cnc4ccc(C#N)cc4c32)CCO1 (stereo partly drawn) [Compound 49, 2-[1-(cyclopropylmethyl)-2-oxopiperidin-4-yl]-1-[(2R,4R)-2-methyloxan-4-yl]-1H-imidazo[4,5-c]quinoline-8-carbonitrile] | 15.3 nM | 871 nM
C[C@@H]1C[C@H](n2c(CC(=O)Nc3cc(C(C)(C)F)no3)nc3cnc4ccc(C#N)cc4c32)CCO1 [Compound 341, N-[3-(1-fluoro-1-methylethyl)-5-isoxazolyl]{3-[(2R,4R)-2-methyltetrahydro-2H-pyran-4-yl]-12-cyano-3,5,8-triazatricyclo[7.4.0.0^2,6]trideca-1(9),2(6),4,7,10,12-hexaen-4-yl}acetamide] | 0.423 nM | 8.13 nM
CC(=O)N1CC[C@@H](c2nc3cnc4ccc(C#N)cc4c3n2[C@@H]2CCO[C@H](C)C2)C1 [Compound 42, 2-[(3R)-1-acetylpyrrolidin-3-yl]-1-[(2R,4R)-2-methyloxan-4-yl]-1H-imidazo[4,5-c]quinoline-8-carbonitrile] | 13 nM | 2070 nM
C[C@@H]1C[C@H](n2c(CC(=O)NC3CC3(F)F)nc3cnc4ccc(C#N)cc4c32)CCO1 (stereo partly drawn) [Compound 288, N-2,2-difluorocyclopropyl{3-[(2R,4R)-2-methyltetrahydro-2H-pyran-4-yl]-12-cyano-3,5,8-triazatricyclo[7.4.0.0^2,6]trideca-1,4,6,8,10,12-hexaen-4-yl}acetamide] | 0.642 nM | 39 nM
C[C@@H]1C[C@H](n2c(CC(=O)Nc3cnn(C4CC4)c3)nc3cnc4ccc(C#N)cc4c32)CCO1 [Compound 307, N-(1-cyclopropyl-4-pyrazolyl){3-[(2R,4R)-2-methyltetrahydro-2H-pyran-4-yl]-12-cyano-3,5,8-triazatricyclo[7.4.0.0^2,6]trideca-1(13),2(6),4,7,9,11-hexaen-4-yl}acetamide] | 0.683 nM | 17.2 nM
C[C@@H]1C[C@H](n2c(CC(=O)Nc3cnn(C)c(=O)c3)nc3cnc4ccc(Cl)cc4c32)CCO1 [Compound 206, N-(1-methyl-6-oxo-1,6-dihydro-4-pyridazinyl){3-[(2R,4R)-2-methyltetrahydro-2H-pyran-4-yl]-12-chloro-3,5,8-triazatricyclo[7.4.0.0^2,6]trideca-1,4,6,8,10,12-hexaen-4-yl}acetamide] | 0.48 nM | 8.37 nM
C[C@@H]1C[C@H](n2c(CC(=O)NC[C@@H]3CCOC3)nc3cnc4ccc(C#N)cc4c32)CCO1 [Compound 173, 2-{8-cyano-1-[(2R,4R)-2-methyloxan-4-yl]-1H-imidazo[4,5-c]quinolin-2-yl}-N-{[(3S)-oxolan-3-yl]methyl}acetamide] | 0.413 nM | 38.1 nM
COc1ncnc(OC)c1NC(=O)Cc1nc2cnc3ccc(C#N)cc3c2n1[C@@H]1CCO[C@H](C)C1 [Compound 247, N-(4,6-dimethoxy-5-pyrimidinyl){3-[(2R,4R)-2-methyltetrahydro-2H-pyran-4-yl]-12-cyano-3,5,8-triazatricyclo[7.4.0.0^2,6]trideca-1(9),2(6),4,7,10,12-hexaen-4-yl}acetamide] | 0.348 nM | 4.06 nM
